From paper PMC6874683, “Pyrrothiogatain acts as an inhibitor of GATA family proteins and inhibits Th2 cell differentiation in vitro” (Scientific Reports, 2019) come the findings set out here.

The structures appear in SMILES notation.

One assay concerns the target T1, GATA3 (Homo sapiens, UniProt P23771).
T1 construct: we synthesized the recombinant full-length GATA3 protein with an N-terminal FLAG tag using the wheat cell-free system; made in house; host or cells: wheat cell-free protein synthesis system (WEPRO1240 kit)
Nature of the assay: Electrophoretic mobility shift assay (EMSA), GATA3. The assay is classed as binding. The settings on record: 50 to 100 µM. As for the experimental part: Electrophoretic mobility shift assays were performed as described previously. In brief, four GATA family proteins (GATA2 to GATA5) were incubated with a ^32P-labelled GATA-binding DNA probe for 20 min at 4 °C in the presence or absence of pyrrothiogatain (0 to 100 µM). The DNA-protein complex was separated from free oligonucleotides on 4% polyacrylamide gels, and then, the ^32P-labelled DNA probes were detected using the Typhoon FLA 7000 (GE Healthcare).

Another assay relates to cytokine production. Kind of assay: ELISA of cytokine production, total CD4+ T cells under IL-2 conditions. The assay is classed as cell-based, mouse. The settings on record: 30 µM, five days. As for the experimental part: C57BL/6 mice were purchased from Clea (Clea Japan, Inc., Tokyo, Japan). Total CD4^+ T cells isolated from mouse spleen were prepared using a FITC anti-mouse CD4 antibody (Cat#100510, RM4–5, BioLegend) and anti-FITC-microbeads (Cat#130-097-050, Miltenyi Biotec). Naive CD4^+ T cells (CD44^low, CD62L^high) were prepared using a MojoSort Mouse CD4 T cell Isolation Kit (Cat#480033), BioLegend). Biotinylated anti-CD44 (Cat#103004, IM7) and anti-CD25 antibodies (Cat#102004, PC61) were purchased from BioLegend. […]
The CD4^+ T cells cultured for five days were stimulated using an immobilized anti-TCR-β mAb (3 µg/mL, H57–597, BioLegend) for 16 h, and the culture supernatants were recovered. The amount of cytokines in the recovered supernatants was determined with ELISA using the following antibodies and reagents: anti-IL-4 mAb (Cat#554387, BD Biosciences), biotin-anti-IL-4 mAb (Cat#554390, BD Biosciences), anti-IL-5 mAb (Cat#554393, BD Biosciences), biotin-anti-IL-5 mAb (Cat#554397, BD Biosciences), anti-IFN-γ mAb (Cat#551216, BD Biosciences), biotin-anti-IFN-γ mAb (Cat#554410, BD Biosciences), anti-IL-2 mAb (Cat#554424, BD Biosciences), biotin-anti-IL-2 mAb (Cat#554426, BD Biosciences), streptavidin horseradish peroxidase (Cat#434323, Invitrogen), and TMB peroxidase EIA substrate kit (Cat#1721066, BioRad). […]

Another assay concerns Th2 cell differentiation. Nature of the assay: Intracellular cytokine staining, naive CD4+ T cells under Th2 conditions. Format: cell-based, mouse. The settings on record: 30 and 80 µM, 5 days. How it is done: (§1) C57BL/6 mice were purchased from Clea (Clea Japan, Inc., Tokyo, Japan). Total CD4^+ T cells isolated from mouse spleen were prepared using a FITC anti-mouse CD4 antibody (Cat#100510, RM4–5, BioLegend) and anti-FITC-microbeads (Cat#130-097-050, Miltenyi Biotec). Naive CD4^+ T cells (CD44^low, CD62L^high) were prepared using a MojoSort Mouse CD4 T cell Isolation Kit (Cat#480033), BioLegend). Biotinylated anti-CD44 (Cat#103004, IM7) and anti-CD25 antibodies (Cat#102004, PC61) were purchased from BioLegend. CD4^+ T cells (7.5 × 10^5) were stimulated using immobilized anti-TCR-β mAb (3 µg/mL, H57–597, BioLegend) plus an anti-CD28 mAb (1.0 µg/mL, cat#40–0281, TONBO Biosciences) for 2 days, and then, the cells were further expanded under similar conditions for an additional 3 days. IL-2 conditions: IL-2 (10 ng/mL, Pepro Tech); Th2 conditions: IL-2 (10 ng/mL, Pepro Tech), IL-4 (1 ng/mL, Pepro Tech), and anti-IFN-γ mAb (2.5 µg/mL, cat#40–731, TONBO Biosciences). […]
The in vitro differentiated CD4^+ T cells were stimulated using an immobilized anti-TCR-β mAb (3 µg/ml, H57–597, BioLegend) for 6 h in the presence of monensin (2 µM). […] Flow cytometry was performed using a Gallios Flow Cytometer instrument (Beckman Coulter) and a FACS Caliber instrument (BD Biosciences) and the results were analysed using the FlowJo software program (Tree Star, Ashland, OR, USA).

Assay [1] concerns Th2 cytokine and GATA3 mRNA. Nature of the assay: Quantitative RT-PCR, naive CD4+ T cells under Th2 conditions. Format: cell-based, mouse. The settings on record: 5 days. How it is done: as §1, with “Biosciences). Th1 conditions: IL-2 (10 ng/mL, Pepro Tech), IL-12 (1 ng/mL, Pepro Tech), and anti-IL-4 mAb (2.5 µg/mL, cat#40–731, TONBO Biosciences). The cultured cells were subjected to intracellular staining, ELISA assay, and RT-PCR. All animal experiments received approval from the Ehime University Administrative Panel for Animal Care. All animal care was conducted in accordance with the guidelines of Ehime University.” for “Biosciences).”

The subject of another assay is GATA3 expression. Kind of assay: Intracellular staining of GATA3, CD4+ T cells under IL-2 conditions. The assay is classed as cell-based, mouse. Particulars: 30 µM, two days. As for the experimental part: The in vitro differentiated CD4^+ T cells were stimulated using an immobilized anti-TCR-β mAb (3 µg/ml, H57–597, BioLegend) for 6 h in the presence of monensin (2 µM). The cells were fixed with 4% paraformaldehyde (Cat#163–20145, Wako) and permeabilized with permeabilization buffer (50 mM NaCl, 5 mM EDTA, 0.02% NaN3, and 0.5% Triton X-100). Then, the cells were stained using the following antibodies, anti-IL-4-PE (Cat#504103, BioLegend, 1:50), anti-IL-5-APC (Cat#504305, BioLegend, 1:50), anti-IL-13-PE (Cat#12–7133–41, eBiosience, 1:50), anti-IFN-γ-FITC (Cat#562019, BD Biosciences, 1:500), and anti-IL-2-APC (Cat#503809, BioLegend, 1:50). For the intracellular staining of Gata3, the Foxp3/Transcription Factor Staining Buffer Kit (cat#TNB-0607, TONBO) was used according to the manufacturer’s protocol. Flow cytometry was performed using a Gallios Flow Cytometer instrument (Beckman Coulter) and a FACS Caliber instrument (BD Biosciences) and the results were analysed using the FlowJo software program (Tree Star, Ashland, OR, USA).
(D) Intracellular staining of GATA3 in CD4+ T cells stimulated with immobilized anti-TCRβ mAb plus anti-CD28 mAb under IL-2 conditions in the presence or absence of pyrrothiogatain (30 µM) for two days.

T1 sequence (P23771 whole entry, species assumed): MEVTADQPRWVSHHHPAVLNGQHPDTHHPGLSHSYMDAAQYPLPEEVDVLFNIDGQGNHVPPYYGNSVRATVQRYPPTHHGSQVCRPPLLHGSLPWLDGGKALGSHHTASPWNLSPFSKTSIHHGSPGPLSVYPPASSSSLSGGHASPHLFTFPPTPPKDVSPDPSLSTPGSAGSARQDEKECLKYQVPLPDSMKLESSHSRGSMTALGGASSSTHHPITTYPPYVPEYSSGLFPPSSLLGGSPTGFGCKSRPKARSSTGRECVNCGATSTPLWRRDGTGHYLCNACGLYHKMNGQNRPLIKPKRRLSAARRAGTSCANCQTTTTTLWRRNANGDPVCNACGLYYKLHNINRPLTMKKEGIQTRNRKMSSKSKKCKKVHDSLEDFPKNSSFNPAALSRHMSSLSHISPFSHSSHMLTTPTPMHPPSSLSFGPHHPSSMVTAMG

On to `Cc1ccc(C)n1-c1ccsc1C(=O)O` [Pyrrothiogatain, 3-(2,5-dimethyl-1H-pyrrol-1-yl)thiophene-2-carboxylic acid], for which, at GATA3, the “Intensity of the shifted bands generated by GATA3-DNA binding” value is reported as “decreased”. Also, in the assay with cytokine production, the “Production of IFN-γ (ELISA)” value is on record as “Increased”; the “Production of IL-4, IL-5, IL-10, and IL-13 (ELISA)” value is on record as “decreased”. Also, the “Generation of IL-4-, IL-5-, and IL-13-producing Th2 cells” value with Th2 cell differentiation is “repressed”. In addition, the “mRNA expression of IL-4, IL-5 and IL-13 (RT-qPCR)” value in assay [1] (30 and 80 µM) is on record as “Decreased”. For the same compound, the “Expression of GATA3, mRNA level” value in assay [1] is “not influenced”. In addition, in the assay with GATA3 expression, the “Expression of GATA3, protein level” value is on record as “not influenced”.
